Laboratory results reported in PubChem BioAssay AID248 (DTP/NCI, 2004).
“And” between values parts separate entries of the source, which are not always exact repeats. Equal values may be shown once. Toxic doses and inconclusive results are not listed. Cut-off read from the data, not from the text of the source: active = T/C of 150% or more; inactive = T/C below 125%.

System: L1210 leukemia ip in BDF1 mice, survival T/C
Assay: NCI In Vivo Anticancer Drug Screen. Data for tumor model L1210 Leukemia (intraperitoneal) in B6D2F1 (BDF1) mice
Details: endpoint: mean survival time, higher = longer survival
Method in brief: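 Tumor cells were implanted, animals were treated, and survival was followed. The result divides the treated measurement by the vehicle-control measurement.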

[1] = dose: 100.0 mg/kg/injection, schedule: Q04DX003 (ip), vehicle: Klucel (hydroxypropylcellulose) (HPC)
[2] = dose: 200.0 mg/kg/injection, schedule: Q04DX003 (ip), vehicle: Klucel (hydroxypropylcellulose) (HPC)
[3] = dose: 100.0 mg/kg/injection, schedule: Q01DX001 (ip), vehicle: saline
[4] = dose: 100.0 mg/kg/injection, schedule: Q01DX009 (ip), vehicle: saline
[5] = dose: 200.0 mg/kg/injection, schedule: Q01DX001 (ip), vehicle: saline
[6] = dose: 200.0 mg/kg/injection, schedule: Q01DX009 (ip), vehicle: saline
[7] = dose: 400.0 mg/kg/injection, schedule: Q01DX001 (ip), vehicle: saline
[8] = dose: 25.0 mg/kg/injection, schedule: Q01DX009 (ip), vehicle: saline with Tween-80
[9] = dose: 50.0 mg/kg/injection, schedule: Q01DX009 (ip), vehicle: saline with Tween-80
[10] = dose: 100.0 mg/kg/injection, schedule: Q04DX003 (ip), vehicle: saline with Tween-80
[11] = dose: 200.0 mg/kg/injection, schedule: Q01DX009 (ip), vehicle: saline with Tween-80
[12] = dose: 200.0 mg/kg/injection, schedule: Q04DX003 (ip), vehicle: saline with Tween-80
[13] = dose: 400.0 mg/kg/injection, schedule: Q01DX009 (ip), vehicle: saline with Tween-80
[14] = dose: 400.0 mg/kg/injection, schedule: Q04DX003 (ip), vehicle: saline with Tween-80
[15] = dose: 100.0 mg/kg/injection, schedule: Q01DX009 (ip), vehicle: Klucel (hydroxypropylcellulose) (HPC)
[16] = dose: 200.0 mg/kg/injection, schedule: Q01DX009 (ip), vehicle: Klucel (hydroxypropylcellulose) (HPC)
[17] = dose: 400.0 mg/kg/injection, schedule: Q01DX009 (ip), vehicle: Klucel (hydroxypropylcellulose) (HPC)
[18] = dose: 400.0 mg/kg/injection, schedule: Q04DX003 (ip), vehicle: Klucel (hydroxypropylcellulose) (HPC)
[19] = dose: 100.0 mg/kg/injection, schedule: Q04DX003 (ip), vehicle: saline
[20] = dose: 100.0 mg/kg/injection, schedule: Q01DX009 (ip), vehicle: saline with Tween-80
[21] = dose: 100.0 mg/kg/injection, schedule: Q01DX001 (ip), vehicle: Klucel (hydroxypropylcellulose) (HPC)
[22] = dose: 200.0 mg/kg/injection, schedule: Q01DX001 (ip), vehicle: Klucel (hydroxypropylcellulose) (HPC)
[23] = dose: 400.0 mg/kg/injection, schedule: Q01DX001 (ip), vehicle: Klucel (hydroxypropylcellulose) (HPC)

Measured: T/C

CC(=O)OCC1OC(=O)C(C)N(C)C(=O)CN(C)C(=O)C2C(=O)CC(C)N2C(=O)C(C(C)C)NC(=O)C1NC(=O)c1c2nc3c(C(=O)NC4C(=O)NC(C(C)C)C(=O)N5C(C)CC(OC(C)=O)C5C(=O)N(C)CC(=O)N(C)C(C(C)C)C(=O)OC4C)ccc(C)c3oc-2c(C)c(=O)c1N (stereo unspecified)
inactive: dose: 0.05 mg/kg/injection, schedule: Q01DX009 (ip), vehicle: saline with Tween-80 94 % of control | dose: 0.1 mg/kg/injection, schedule: Q01DX009 (ip), vehicle: saline with Tween-80 102 % of control | dose: 0.15 mg/kg/injection, schedule: Q04DX003 (ip), vehicle: saline with Tween-80 95 % of control | dose: 0.2 mg/kg/injection, schedule: Q01DX009 (ip), vehicle: saline with Tween-80 112 % of control | dose: 0.3 mg/kg/injection, schedule: Q04DX003 (ip), vehicle: saline with Tween-80 100 % of control | dose: 0.4 mg/kg/injection, schedule: Q01DX001 (ip), vehicle: saline with Tween-80 102 % of control | dose: 0.4 mg/kg/injection, schedule: Q01DX009 (ip), vehicle: saline with Tween-80 118 % of control | dose: 0.6 mg/kg/injection, schedule: Q04DX003 (ip), vehicle: saline with Tween-80 111 % of control | dose: 0.8 mg/kg/injection, schedule: Q01DX001 (ip), vehicle: saline with Tween-80 118 % of control | dose: 1.2 mg/kg/injection, schedule: Q04DX003 (ip), vehicle: saline with Tween-80 118 % of control | dose: 1.6 mg/kg/injection, schedule: Q01DX001 (ip), vehicle: saline with Tween-80 112 % of control | dose: 2.4 mg/kg/injection, schedule: Q04DX003 (ip), vehicle: saline with Tween-80 119 % of control | dose: 3.2 mg/kg/injection, schedule: Q01DX001 (ip), vehicle: saline with Tween-80 119 % of control | dose: 6.4 mg/kg/injection, schedule: Q01DX001 (ip), vehicle: saline with Tween-80 102 % of control

CCCCNC(=O)NS(=O)(=O)c1ccc(CCl)cc1
inactive: dose: 50.0 mg/kg/injection, schedule: Q04DX003 (ip), vehicle: Klucel (hydroxypropylcellulose) (HPC) 98 % of control | [1] 102 % of control | [2] 100 % of control

COC(=O)c1ccc(=O)n(C/C=C(\C)CCC=C(C)C)c1
inactive: [3] 95 % of control | [4] 104 % of control | [5] 97 % of control | [6] 90 % of control | [7] 101 % of control | dose: 400.0 mg/kg/injection, schedule: Q01DX009 (ip), vehicle: saline 101 % of control

Cc1cc(Cl)ccc1NC(=O)Oc1cc(C)c(Cl)c(C)c1Cl
inactive: [8] 100 % of control and 90 % of control | [9] 95 % of control and 103 % of control | dose: 100.0 mg/kg/injection, schedule: Q01DX001 (ip), vehicle: saline with Tween-80 94 % of control | [10] 93 % of control and 109 % of control | dose: 200.0 mg/kg/injection, schedule: Q01DX001 (ip), vehicle: saline with Tween-80 97 % of control | [11] 97 % of control and 105 % of control | [12] 97 % of control and 108 % of control | dose: 400.0 mg/kg/injection, schedule: Q01DX001 (ip), vehicle: saline with Tween-80 101 % of control | [13] 90 % of control | [14] 103 % of control and 113 % of control

c1ccc2oc(CCCCc3nc4ccccc4o3)nc2c1
inactive: [15] 91 % of control | [1] 102 % of control | [16] 102 % of control | [2] 104 % of control | [17] 92 % of control | [18] 102 % of control

CC(C)C(C(=O)O)N1C(=O)C2C3CCC(O3)C2C1=O (stereo unspecified)
inactive: [19] 98 % of control and 102 % of control | dose: 200.0 mg/kg/injection, schedule: Q04DX003 (ip), vehicle: saline 98 % of control and 89 % of control | dose: 400.0 mg/kg/injection, schedule: Q04DX003 (ip), vehicle: saline 98 % of control and 103 % of control

Clc1cc2c(c3c1CONC3)OCO2
inactive: [10] 92 % of control | [12] 90 % of control | [14] 100 % of control

CCOC(=O)C(N)Cc1cc(I)c(O)c(I)c1 (stereo unspecified)
inactive: [10] 95 % of control | [12] 97 % of control | [14] 101 % of control

NCc1cc([N+](=O)[O-])ccc1Cl
inactive: dose: 50.0 mg/kg/injection, schedule: Q01DX009 (ip), vehicle: saline 101 % of control | [4] 95 % of control | [10] 92 % of control | [6] 97 % of control | [12] 103 % of control

Cc1ccc(COC(=O)c2ccccc2)cc1
inactive: [15] 101 % of control | [1] 103 % of control | [16] 98 % of control | [2] 97 % of control | [17] 95 % of control | [18] 97 % of control

NC(=O)/C=C/C(N)=O
inactive: [8] 91 % of control | [9] 88 % of control | [20] 88 % of control | [10] 89 % of control | [12] 94 % of control | [14] 92 % of control

O=Nc1c(N=O)c(N=O)c(N=O)c(N=O)c1N=O
inactive: dose: 1.0 mg/kg/injection, schedule: Q01DX015 (ip), vehicle: carboxymethylcellulose (CMC) 101 % of control | dose: 2.0 mg/kg/injection, schedule: Q01DX015 (ip), vehicle: carboxymethylcellulose (CMC) 92 % of control | dose: 4.0 mg/kg/injection, schedule: Q01DX015 (ip), vehicle: carboxymethylcellulose (CMC) 102 % of control | dose: 8.0 mg/kg/injection, schedule: Q01DX015 (ip), vehicle: carboxymethylcellulose (CMC) 91 % of control | dose: 25.0 mg/kg/injection, schedule: Q04DX003 (ip), vehicle: saline 101 % of control | dose: 50.0 mg/kg/injection, schedule: Q04DX003 (ip), vehicle: saline 90 % of control | [3] 107 % of control | [19] 90 % of control | [5] 100 % of control | [7] 100 % of control

O=C(O)C1CCCCC1C(=O)Nc1cccc2ccccc12 (stereo unspecified)
inactive: [15] 105 % of control | [16] 96 % of control | [17] 93 % of control

COc1ccccc1CCN
inactive: dose: 100.0 mg/kg/injection, schedule: Q04DX002 (ip), vehicle: saline 112 % of control | dose: 200.0 mg/kg/injection, schedule: Q04DX002 (ip), vehicle: saline 93 % of control and 108 % of control

COC1=CC2C3=C(C(NC=O)CCc4cc(OC)c(OC)c(OC)c43)C2C1=O (stereo unspecified)
inactive: [1] 95 % of control | [2] 100 % of control | [18] 102 % of control

CCCCCCCCCCCCCCCCOc1ccc(CC)cc1
inactive: [1] 91 % of control

CN1N=C(c2ccccc2)CC1=O
inactive: [21] 103 % of control | [22] 108 % of control | [23] 97 % of control

N#CC(C#N)=Cc1ccc2ccc3cccc4ccc1c2c34
inactive: [1] 91 % of control | [2] 93 % of control | [18] 93 % of control

CC(=O)OCC1OC(OC2CCCc3c(O)c4c(c(O)c32)C(=O)c2ccccc2C4=O)C(OC(C)=O)C(OC(C)=O)C1OC(C)=O (stereo unspecified)
inactive: dose: 40.0 mg/kg/injection, schedule: Q01DX001 (ip), vehicle: saline 86 % of control | dose: 80.0 mg/kg/injection, schedule: Q01DX001 (ip), vehicle: saline 92 % of control

COc1ccc(OC)c(C(C)(O)CC(=O)O)c1 (stereo unspecified)
inactive: [20] 100 % of control | [10] 96 % of control | [11] 105 % of control | [12] 93 % of control | [13] 97 % of control | [14] 101 % of control

CC1(C)OC2OC(C3COC(=O)O3)C(O)C2O1 (stereo unspecified)
inactive: [21] 114 % of control | [22] 101 % of control | [23] 96 % of control

CC1(C)C=C(C(Br)c2ccc(Cl)cc2)C(=O)c2ccccc21 (stereo unspecified)
inactive: dose: 50.0 mg/kg/injection, schedule: Q01DX009 (ip), vehicle: Klucel (hydroxypropylcellulose) (HPC) 110 % of control | [15] 105 % of control | [1] 95 % of control | [16] 100 % of control | [2] 92 % of control
